Experimental data as given in patent US8796224B2, “Methods for preparing purified lipopeptides” (priority 2000, dated 2014).
Converted amounts (≈) assume the structure as drawn.

Assays:
susceptible strains = experiment: Minimum inhibitory concentration (MIC) in in vitro experiments; format: cell-based, gram-positive organisms; details: against susceptible strains, compared with vancomycin, 'typically'
[1] = Hygroscopicity of the amorphous preparation; format: physicochemical; details: amorphous daptomycin preparation

Row | solubility (physchem; solubility in normal saline) | Compound | MIC value, fold lower than that of vancomycin (susceptible strains) | hygroscopicity [1] | solubility (physchem; solubility in ethanol) | solubility (physchem; solubility in water)
1 | – | CCCCCCCCCC(=O)N[C@@H](Cc1c[nH]c2ccccc12)C(=O)N[C@H](CC(N)=O)C(=O)N[C@@H](CC(=O)O)C(=O)N[C@@H]1C(=O)NCC(=O)N[C@@H](CCCN)C(=O)N[C@@H](CC(=O)O)C(=O)N[C@H](C)C(=O)N[C@@H](CC(=O)O)C(=O)NCC(=O)N[C@H](CO)C(=O)N[C@@H]([C@H](C)CC(=O)O)C(=O)N[C@@H](CC(=O)c2ccccc2N)C(=O)O[C@@H]1C [daptomycin] | 4 fold | hygroscopic | 2.8 mg/mL (≈ 1.73 mM) | > 1000 mg/mL
2 | ~80 mg/mL (≈ 48.9 mM) | CCCCCCCCCCC(=O)NC(Cc1c[nH]c2ccccc12)C(=O)NC(CC(N)=O)C(=O)NC(CC(=O)O)C(=O)NC1C(=O)NCC(=O)NC(CCCN)C(=O)NC(CC(=O)O)C(=O)NC(C)C(=O)NC(CC(=O)O)C(=O)NCC(=O)NC(CO)C(=O)NC(C(C)CC(=O)O)C(=O)NC(CC(=O)c2ccccc2N)C(=O)OC1C (centres unmarked) [CB-131547] | – | – | – | –
